This note sets out measurements from patent US10611740B2, “Aryl dihydro-2H-benzo[b][1,4]oxazine sulfonamide and related compounds for use as agonists of RORγ and the treatment of disease” (Lycera Corporation, priority 2015, dated 2020).

Some results are limits rather than exact numbers.

One assay has as its target T1, RORγ-LBD (Homo sapiens, UniProt P51449).
T1 construct: made in house; host or cells: SF9 cells (baculovirus)
T1 sequence (P51449 269-508 limits assumed): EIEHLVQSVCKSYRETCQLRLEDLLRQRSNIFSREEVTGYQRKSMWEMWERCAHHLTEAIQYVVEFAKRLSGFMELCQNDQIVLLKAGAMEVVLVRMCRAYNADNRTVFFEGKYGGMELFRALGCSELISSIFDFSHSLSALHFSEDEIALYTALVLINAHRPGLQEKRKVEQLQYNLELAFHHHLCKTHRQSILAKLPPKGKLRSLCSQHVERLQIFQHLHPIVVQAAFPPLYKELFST
Nature of the assay: RORγ-Ligand Binding Domain (LBD) TR-FRET Assay.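 For TR-FRET Assay Max Response: 665/615 nm ratio relative to signal without ursolic acid or compound set at 100.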 Format: biochemical. In outline: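 TR-FRET read-out using a biotin-tagged SRC1 coactivator LXXLL peptide (200 nM final), with the antagonist ursolic acid present at 2 μM final. Receptor is His-tagged LBD expressed in SF9 cells, ~3 nM final in pH 7.0 Tris/KCl/EDTA/DTT/BSA buffer; compounds in 1% DMSO final.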
(In general: In TR-FRET formats the signal depends on donor and acceptor labels being close together.)

A further assay deals with T2, Gal4-RORγ-LBD (Homo sapiens, UniProt P51449).
T2 construct: expressed in transfected cells; host or cells: HEK-293 cells (pcDNA3.1neo plasmid)
T2 sequence (P51449 269-508 limits assumed): T1 sequence (P51449 269-508 limits assumed)
Nature of the assay: Gal4-RORγ Luciferase Reporter Assay in HEK-293T Cells. The conditions noted are these: HEK-293 cells, luciferase reporter, with 2 μM ursolic acid. The assay is classed as cell-based. The method, boiled down:
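Luminescence read-out (One-Glo, 10 min RT) after overnight compound exposure at 37 °C in HEK-293 cells carrying Gal4-RORγ-LBD plus a Gal4-luciferase reporter, in the presence of 2 μM ursolic acid. Max Response is the upper plateau from a 4-parameter logistic fit, normalized to untreated signal = 100.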
A general note: In a reporter assay the amount or activity of a reporter protein is the signal.

As for `Cn1cncc1-c1ccc2c(c1)N(S(=O)(=O)c1cccc(C(F)(F)F)c1)C[C@H](CCC(=O)O)O2` [Compound 4K, (S)-3-(6-(1-methyl-1H-imidazol-5-yl)-4-((3-(trifluoromethyl)-phenyl)sulfonyl)-3,4-dihydro-2H-benzo[b][1,4]oxazin-2-yl)propanoic acid], the 50% effective concentration (EC50) (commonly the concentration needed to bring the measured effect to its halfway point) on RORγ-LBD was 0.5 to 5 µM; at Gal4-RORγ-LBD, over 10 µM. For the same compound, at RORγ-LBD, the “TR-FRET Assay Max Response” value is “**** (The symbol “****” indicates a value greater than 200)”.
With `Cn1ccnc1-c1ccc2c(c1)N(S(=O)(=O)c1cccc(C(F)(F)F)c1)C[C@H](CCC(=O)O)O2` [Compound 4L, (S)-3-(6-(1-methyl-1H-imidazol-2-yl)-4-((3-(trifluoromethyl)-phenyl)sulfonyl)-3,4-dihydro-2H-benzo[b][1,4]oxazin-2-yl)propanoic acid], the EC50 on RORγ-LBD and on Gal4-RORγ-LBD was over 10 µM throughout. For the same compound, the “TR-FRET Assay Max Response” value on RORγ-LBD is on record as “**** (The symbol “****” indicates a value greater than 200)”.
As for `Cn1cnc(-c2ccc3c(c2)N(S(=O)(=O)c2cccc(C(F)(F)F)c2)C[C@H](CCC(=O)O)O3)n1` [Compound 4M, (S)-3-(6-(1-methyl-1H-1,2,4-triazol-3-yl)-4-((3-(trifluoro-methyl)phenyl)sulfonyl)-3,4-dihydro-2H-benzo[b][1,4]-oxazin-2-yl)propanoic acid], at RORγ-LBD, the 50% effective concentration (EC50) is under 0.5 µM and the “TR-FRET Assay Max Response” value is on record as “**** (The symbol “****” indicates a value greater than 200)”. Moreover, on Gal4-RORγ-LBD, the EC50 was over 10 µM and the “Gal4-RORγ Assay Max Response” value was “* (The symbol “*” indicates a value in the range of 25 to 90)”.
Consider `O=C(O)CC[C@H]1CN(S(=O)(=O)c2cccc(C(F)(F)F)c2)c2cc(-c3ncc4ccccn34)ccc2O1` [Compound 4N, (S)-3-(6-(imidazo[1,5-a]pyridin-3-yl)-4-((3-(trifluoromethyl)-phenyl)sulfonyl)-3,4-dihydro-2H-benzo[b][1,4]oxazin-2-yl)propanoic acid], for which, at RORγ-LBD, the concentration giving a half-maximal response (EC50) was under 0.5 µM and the “TR-FRET Assay Max Response” value was “**** (The symbol “****” indicates a value greater than 200)”. Further, at Gal4-RORγ-LBD, the half-maximal effective concentration (EC50) was 0.5 to 5 µM and the “Gal4-RORγ Assay Max Response” value was “** (The symbol “**” indicates a value in the range of greater than 90 to 150)”.
The corresponding values for `O=C(O)CC[C@H]1CN(S(=O)(=O)c2cccc(C(F)(F)F)c2)c2cc(-c3cnn4ccccc34)ccc2O1` [Compound 4O, (S)-3-(6-(pyrazolo[1,5-a]pyridin-3-yl)-4-((3-(trifluoromethyl)-phenyl)sulfonyl)-3,4-dihydro-2H-benzo[b][1,4]oxazin-2-yl)propanoic acid] are under 0.5 µM, “*** (The symbol “***” indicates a value in the range of greater than 150 to 200)”, 0.5 to 5 µM and “** (The symbol “**” indicates a value in the range of greater than 90 to 150)”.
The corresponding values for `O=C(O)CC[C@H]1CN(S(=O)(=O)c2cccc(C(F)(F)F)c2)c2cc(-c3cccc4nccn34)ccc2O1` [Compound 4P, (S)-3-(6-(imidazo[1,2-a]pyridin-5-yl)-4-((3-(trifluoromethyl)-phenyl)sulfonyl)-3,4-dihydro-2H-benzo[b][1,4]oxazin-2-yl)propanoic acid] are under 0.5 µM, “** (The symbol “**” indicates a value in the range of greater than 90 to 150)”, 5 to 10 µM and “** (The symbol “**” indicates a value in the range of greater than 90 to 150)”.
For `Cn1cnc(-c2ccc3c(c2)N(S(=O)(=O)c2cccc(C(F)(F)F)c2)C[C@H](CCC(=O)O)O3)c1` [Compound 4Q, (S)-3-(6-(1-methyl-1H-imidazol-4-yl)-4-((3-(trifluoromethyl)-phenyl)sulfonyl)-3,4-dihydro-2H-benzo[b][1,4]oxazin-2-yl)propanoic acid], on RORγ-LBD, the EC50 is 0.5 to 5 µM and the “TR-FRET Assay Max Response” value is listed as “** (The symbol “**” indicates a value in the range of greater than 90 to 150)”. The same compound gave a half-maximal effective concentration (EC50) at Gal4-RORγ-LBD of over 10 µM.
